Test results from patent US10253015B2, “Pyridinyl quinolinone derivatives as mutant-isocitrate dehydrogenase inhibitors” (FORMA TM2, Inc., priority 2014, dated 2019).
Where two headings read alike, the source gives them in different places.

What was measured:
[1] = target: IDH1-R132H recombinant protein (Homo sapiens (Human), UniProt O75874, R132H); assay: IDH1-R132H enzymatic assay; type: biochemical
Procedure: (§1) Assays were performed in a 384-well black plate. […] After the plate was centrifuged briefly, an aliquot of 10 μL of 2 mM α-ketoglutarate and 20 μM NADPH solution prepared in assay buffer was then added to each well and the reaction was maintained at 25° C. for 45 minutes. An aliquot of 10 μL of diaphorase solution (0.15 U/mL diaphorase and 30 μM Resazurin in assay buffer) was added to each well. […] The IC50 of a given compound was calculated by fitting the dose response curve of inhibition of NADPH consumption at a given concentration with the four parameter logistic equation.

[2] = target: IDH1-R132C recombinant protein (Homo sapiens (Human), UniProt O75874, R132C); assay: IDH1-R132C enzymatic assay; type: biochemical
Chain of IDH1-R132C recombinant protein (O75874 whole entry R132C): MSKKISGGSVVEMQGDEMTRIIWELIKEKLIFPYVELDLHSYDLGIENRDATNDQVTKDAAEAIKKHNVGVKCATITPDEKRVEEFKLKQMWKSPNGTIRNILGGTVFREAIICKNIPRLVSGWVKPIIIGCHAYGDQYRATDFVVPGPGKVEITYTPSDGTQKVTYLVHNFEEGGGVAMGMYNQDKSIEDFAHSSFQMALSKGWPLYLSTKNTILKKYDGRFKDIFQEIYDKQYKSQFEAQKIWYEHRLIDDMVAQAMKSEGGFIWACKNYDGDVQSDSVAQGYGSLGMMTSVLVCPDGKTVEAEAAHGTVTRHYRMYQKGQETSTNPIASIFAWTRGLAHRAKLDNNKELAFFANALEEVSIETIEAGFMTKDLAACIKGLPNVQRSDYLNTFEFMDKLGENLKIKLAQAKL
Procedure: as §1

[3] = system: HCT116 isogenic IDH1-R132H mutant cells; assay: Cellular 2-HG assay using HCT116 mutant IDH1 cells (R132H); type: cell-based; conditions: Homo sapiens, HCT-116; cellular 2-HG inhibition, 24 hours, RapidFire mass spectrometry; read-out: HCT IDH1 R132H Range IC50
Procedure: (§2) HCT116 isogenic IDH1-R132H and IDH1-R132C mutant cells were cultured in growth media (McCoy's 5 A, 10% fetal bovine serum, 1× antibiotic-antimycotic solution and 0.3 mg/mL G418) in 5% CO2 in an incubator at 37° C. To prepare the assay, cells were trypsinized and resuspended in assay media (McCoy's 5 A with no L-glutamine, 10% fetal bovine serum, 1× antibiotic-antimycotic solution and 0.3 mg/mL G418). An aliquot of 10,000 cells/100 μL was transferred to each well of a clear 96-well tissue culture plate. The cells were incubated in 5% CO2 at 37° C. in an incubator overnight to allow for proper cell attachment. An aliquot of 50 μL of compound containing assay media were then added to each well and the assay plate was kept in 5% CO2 at 37° C. in an incubator for 24 hours. The media was then removed from each well and 150 μL of a methanol/water mixture (80/20 v/v) was added to each well. The plates were kept at −80° C. freezer overnight to allow for complete cell lysis. An aliquot of 125 μL of extracted supernatant was analyzed by RapidFire high-throughout-mass spectrometry (Agilent) to determine the cellular 2-HG level. The IC50 of a given compound was calculated by fitting the dose response curve of cellular 2-HG inhibition at a given concentration with the four parameter logistic equation

[4] = system: HCT116 isogenic IDH1-R132C mutant cells; assay: Cellular 2-HG assay using HCT116 mutant IDH1 cells (R132C); type: cell-based; conditions: Homo sapiens, HCT-116; cellular 2-HG inhibition, 24 hours, RapidFire mass spectrometry; read-out: HCT IDH1 R132C Range IC50
Procedure: as §2

[5] = inhibition of NADPH consumption, diaphorase/resazurin readout, read-out: Enzyme IDH1 R132H Range IC50
[6] = inhibition of NADPH consumption, diaphorase/resazurin readout, read-out: Enzyme IDH1 R132C Range IC50

Chain of IDH1-R132H recombinant protein (O75874 whole entry R132H): as the sequence (O75874 whole entry R132C) above, with C132H counted along it

## COc1cc2[nH]c(=O)c([C@H](C)Nc3ccc(C#N)c(OC)n3)cc2cc1Cl [Compound I-26, 6-{[(1S)-1-(6-chloro-7-methoxy-2-oxo-1,2-dihydroquinolin-3-yl)ethyl]amino}-2-methoxypyridine-3-carbonitrile]
[1]; [5]
  IC50: < 100 nM
[2]; [6]
  IC50: < 100 nM
[3]
  IC50: < 10 nM
[4]
  IC50: 10 to 100 nM

## COc1nc(N[C@@H](C)c2cc3cc(Cl)ccc3[nH]c2=O)ccc1C#N [Compound I-6, 6-{[(1S)-1-(6-chloro-2-oxo-1,2-dihydroquinolin-3-yl)ethyl]amino}-2-methoxypyridine-3-carbonitrile]
[1]; [5]
  IC50: < 100 nM
[2]; [6]
  IC50: 100 to 1000 nM
[3]
  IC50: 100 to 1000 nM
[4]
  IC50: 10 to 100 nM

## COc1cc2[nH]c(=O)c(CNc3ccc(C#N)c(C)n3)cc2cc1Cl [Compound I-83, 6-{[(6-chloro-7-methoxy-2-oxo-1,2-dihydroquinolin-3-yl)methyl]amino}-2-methylpyridine-3-carbonitrile]
[1]; [5]
  IC50: < 100 nM
[2]; [6]
  IC50: > 10000 nM
[3]
  IC50: > 1000 nM
[4]
  IC50: > 1000 nM

## Cc1nc(NC(C)c2cc3cc(Cl)c(OCc4ccccn4)cc3[nH]c2=O)ccc1C#N (centres unmarked) [Compound I-29, 6-({1-[6-chloro-2-oxo-7-(pyridin-2-ylmethoxy)-1,2-dihydroquinolin-3-yl]ethyl}amino)-2-methylpyridine-3-carbonitrile]
[1]; [5]
  IC50: < 100 nM
[3]
  IC50: 10 to 100 nM
[4]
  IC50: 10 to 100 nM

## Cc1nc(NC(C)c2cc3cc(Cl)ccc3[nH]c2=O)ccc1C#N (centres unmarked) [Compound I-9, 6-{[1-(6-chloro-2-oxo-1,2-dihydroquinolin-3-yl)ethyl]amino}-2-methylpyridine-3-carbonitrile]
[1]; [5]
  IC50: 100 to 1000 nM
[2]; [6]
  IC50: 100 to 1000 nM
[3]
  IC50: 100 to 1000 nM
[4]
  IC50: > 1000 nM

## Cc1nc(N[C@@H](C)c2cc3cc(Cl)c(F)cc3[nH]c2=O)ccc1C#N [Compound I-22, 6-{[(1S)-1-(6-chloro-7-fluoro-2-oxo-1,2-dihydroquinolin-3-yl)ethyl]amino}-2-methylpyridine-3-carbonitrile]
[1]; [5]
  IC50: < 100 nM
[2]; [6]
  IC50: 100 to 1000 nM
[3]
  IC50: < 10 nM
[4]
  IC50: 100 to 1000 nM

## C[C@H](Nc1cccc(N2CCOC2=O)n1)c1cc2cc(Cl)ccc2[nH]c1=O [Compound I-11, 6-chloro-3-[(1S)-1-{[6-(2-oxo-1,3-oxazolidin-3-yl)pyridin-2-yl]amino}ethyl]-1,2-dihydroquinolin-2-one]
[4]
  IC50: 100 to 1000 nM

## Cc1c(-c2ccnc(N[C@@H](C)c3cc4cc(Cl)ccc4[nH]c3=O)c2)cnn1C [Compound I-40, 6-chloro-3-[(1S)-1-{[4-(1,5-dimethyl-1H-pyrazol-4-yl)pyridin-2-yl]amino}ethyl]-1,2-dihydroquinolin-2-one]
[1]; [5]
  IC50: 100 to 1000 nM
[2]; [6]
  IC50: 100 to 1000 nM
[3]
  IC50: 100 to 1000 nM
[4]
  IC50: 100 to 1000 nM

## Cc1nc(NC(C)c2cc3cc(Cl)c(OCC4CC(F)(F)C4)cc3[nH]c2=O)ccc1C#N (centres unmarked) [Compound I-30, 6-[(1-{6-chloro-7-[(3,3-difluorocyclobutyl)methoxy]-2-oxo-1,2-dihydroquinolin-3-yl}ethyl)amino]-2-methylpyridine-3-carbonitrile]
[1]; [5]
  IC50: < 100 nM
[2]; [6]
  IC50: 100 to 1000 nM
[3]
  IC50: 10 to 100 nM
[4]
  IC50: 10 to 100 nM

## Cc1nc(N[C@@H](C)c2cc3cc(Cl)c(OCc4ccccn4)cc3[nH]c2=O)ccc1C#N [Compound I-28, 6-{[(1S)-1-[6-chloro-2-oxo-7-(pyridin-2-ylmethoxy)-1,2-dihydroquinolin-3-yl]ethyl]amino}-2-methylpyridine-3-carbonitrile]
[1]; [5]
  IC50: < 100 nM
[2]; [6]
  IC50: < 100 nM
[3]
  IC50: 10 to 100 nM
[4]
  IC50: < 10 nM

## Cc1cc(N[C@@H](C)c2cc3cc(Cl)ccc3[nH]c2=O)ncc1C#N [Compound I-5, (S)-6-((1-(6-chloro-2-oxo-1,2-dihydroquinolin-3-yl)ethyl)amino)-4-methyl nicotinonitrile]
[1]; [5]
  IC50: < 100 nM
[2]; [6]
  IC50: 100 to 1000 nM
[3]
  IC50: 100 to 1000 nM
[4]
  IC50: 100 to 1000 nM

## C[C@H](Nc1nccc(N2CCOC2=O)c1F)c1cc2cc(Cl)ccc2[nH]c1=O [Compound I-14, 6-chloro-3-[(1S)-1-{[3-fluoro-4-(2-oxo-1,3-oxazolidin-3-yl)pyridin-2-yl]amino}ethyl]-1,2-dihydroquinolin-2-one]
[1]; [5]
  IC50: < 100 nM
[2]; [6]
  IC50: 100 to 1000 nM
[3]
  IC50: 100 to 1000 nM
[4]
  IC50: 100 to 1000 nM

## COc1nc(C#N)ccc1N[C@@H](C)c1cc2cc(Cl)ccc2[nH]c1=O [Compound I-7, 5-{[(1S)-1-(6-chloro-2-oxo-1,2-dihydroquinolin-3-yl)ethyl]amino}-6-methoxypyridine-2-carbonitrile]
[1]; [5]
  IC50: < 100 nM
[2]; [6]
  IC50: 1000 to 10000 nM
[3]
  IC50: 100 to 1000 nM
[4]
  IC50: 100 to 1000 nM

## COc1cc2[nH]c(=O)c([C@H](C)Nc3cc(OC)c(C#N)cn3)cc2cc1Cl [Compound I-25, 6-{[(1S)-1-(6-chloro-7-methoxy-2-oxo-1,2-dihydroquinolin-3-yl)ethyl]amino}-4-methoxypyridine-3-carbonitrile]
[1]
  IC50: < 100 nM
[2]
  IC50: < 100 nM
[3]
  IC50: 10 to 100 nM
[4]
  IC50: 100 to 1000 nM

## Cc1nc(NCc2cc3cc(Cl)ccc3[nH]c2=O)ccc1C#N [Compound I-58, 6-{[(6-chloro-2-oxo-1,2-dihydroquinolin-3-yl)methyl]amino}-2-methylpyridine-3-carbonitrile]
[1]; [5]
  IC50: < 100 nM
[2]; [6]
  IC50: 100 to 1000 nM
[3]
  IC50: 100 to 1000 nM
[4]
  IC50: > 1000 nM

## COc1cc2[nH]c(=O)c([C@H](C)Nc3cc(C)c(C#N)cn3)cc2cc1Cl [Compound I-27, 6-{[(1S)-1-(6-chloro-7-methoxy-2-oxo-1,2-dihydroquinolin-3-yl)ethyl]amino}-4-methylpyridine-3-carbonitrile]
[1]; [5]
  IC50: < 100 nM
[2]; [6]
  IC50: < 100 nM
[3]
  IC50: 10 to 100 nM
[4]
  IC50: 100 to 1000 nM

## Cc1nc(N[C@@H](C)c2cc3cc(Cl)ccc3[nH]c2=O)ccc1C#N [Compound I-4, (S)-6-(1-(6-chloro-2-oxo-1,2-dihydroquinolin-3-yl)ethylamino)-2-methyl nicotinonitrile]
[1]; [5]
  IC50: < 100 nM
[2]; [6]
  IC50: 100 to 1000 nM
[3]
  IC50: 100 to 1000 nM
[4]
  IC50: 100 to 1000 nM

## Cc1nc(NC(C)c2cc3cc(Cl)c(F)cc3[nH]c2=O)ccc1C#N (centres unmarked) [Compound I-21, 6-{[1-(6-chloro-7-fluoro-2-oxo-1,2-dihydroquinolin-3-yl)ethyl]amino}-2-methylpyridine-3-carbonitrile]
[1]; [5]
  IC50: < 100 nM
[2]; [6]
  IC50: 100 to 1000 nM
[3]
  IC50: 100 to 1000 nM
[4]
  IC50: 100 to 1000 nM
